Assay results reported in PubChem BioAssay (NCI).
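Test compounds were applied to cells in 96-well plates for 48 hours at 5 doses. Abbreviation: GI50, concentration required for 50% inhibition of growth. Definition used: TGI = concentration required for complete inhibition of growth.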

Key:
Experiment in all cases: inhibition of tumour cell growth, NCI panel, 48 h
[1] = system: SF-539 CNS
[2] = system: UACC-62 melanoma
[3] = system: HL-60(TB) leukemia
[4] = system: SNB-75 CNS
[5] = system: 786-0 renal
[6] = system: A498 renal
[7] = system: NCI-H23 lung
[8] = system: HCT-116 colon
[9] = system: OVCAR-4 ovarian
[10] = system: COLO 205 colon
[11] = system: SR leukemia
[12] = system: PC-3 prostate
[13] = system: NCI/ADR-RES ovarian
[14] = system: DU-145 prostate

SMILES	TGI [1] [µM]	TGI [2] [µM]	TGI [3] [µM]	TGI [4] [µM]	TGI [5] [µM]	TGI [6] [µM]	TGI [7] [µM]	TGI [8] [µM]	TGI [9] [µM]	TGI [10] [µM]	TGI [11] [µM]	TGI [12] [µM]	TGI [13] [µM]	TGI [14] [µM]	GI50 [12] [µM]	GI50 [13] [µM]	GI50 [7] [µM]	GI50 [14] [µM]
c1ccc2c(NCCCCCCCCNc3cccc4ccccc34)cccc2c1	72.2	45.9	50.7	83.2	57.1	> 100	65	40	67.3	35.4								
CCC12CC[C@H](C#N)N3CCc4c(n(c5ccccc45)C(=O)C1)C32 (some centres not stated)	38.2	33.4		27.6	34.1	35.1	41.8	26.8	31.7	43.1								
BrC12C3C4C5C(C(C43)C13OCCO3)C52 (configuration not stated)	> 100		> 100	> 100	> 100	> 100	> 100	> 100		> 100								
COc1ccc2c(c1)CC1NC2Cc2ccccc21 (configuration not stated)	> 100	> 100		> 100	> 100	> 100	> 100	> 100	> 100	> 100								
CC1C(c2ccccc2)=CCON1c1ccccc1 (configuration not stated)	> 100	> 100	> 100	> 100	> 100		> 100	> 100	> 100	> 100	> 100							
N=c1oc2cc(O)c(O)cc2cc1C(N)=O	> 100	> 100		96.3	> 100	> 100	> 100	> 100	> 100	> 100								
CC[N+](CC)(CC)Cc1cn(S(=O)(=O)c2ccccc2)c2ccccc12	> 100	> 100	> 100	> 100	> 100		> 100	> 100	> 100	> 100	> 100							
Cc1nc(Nc2ccccc2)sc1C(=O)NNC(N)=O	> 100	> 100	> 100	80.7	> 100	> 100	> 100	> 100	> 100	> 100								
CCOC(=O)C1C(C(C)C)C2(C#N)C(=N)OC1(C)C2(C#N)C#N (configuration not stated)	> 100	> 100	> 100	74.4	> 100	> 100	> 100	> 100		82.1		> 100	> 100	> 100				
CCOC(=O)C1=C(C)C2C3C(=O)NC(=O)C3C1(C)C1C(=O)NC(=O)C21 (configuration not stated)	> 100	> 100	> 100	> 100	> 100	> 100	> 100	> 100	> 100	> 100								
CO[C@H]1C[C@@H]2CC[C@@H](C)[C@@](O)(O2)C(=O)C(=O)N2CCCC[C@H]2C(=O)O[C@H]([C@H](C)C[C@@H]2CC[C@@H](OC(=O)C(C)(CO)CO)[C@H](OC)C2)CC(=O)[C@H](C)/C=C(\C)[C@@H](O)[C@@H](OC)C(=O)[C@H](C)C[C@H](C)/C=C/C=C/C=C/1C	5.23	29.7	6.31	24.4	> 100		> 100	> 100		> 60.4		> 81.6	72.5	> 100	< 0.0487	1.01	1.34	0.0379
O=C(/C=C\c1cccc2ccccc12)c1ccc(Br)cc1	41.9	29.3	43	56.3	33.7	> 100	> 100	30.3	35.5	91.6								
Cc1cccc(NC(=O)CSc2nnc(Cc3ccccc3)o2)c1	> 100	> 100	> 100	> 100	> 100	> 100	> 100	> 100	> 100	> 100								
Nc1ccccc1C(=O)NNC(=O)c1ccccc1N	> 100	> 100	> 100	> 100	> 100	> 100	> 100	> 100	> 100	> 100		> 100	> 100	> 100				
CCOC(=O)C(=O)Nc1ccc([N+](=O)[O-])cc1C#N	> 100	> 100	> 100		> 100		> 100	> 100	> 100		> 100							
O=C(CSc1nnc(-c2ccc(N=Cc3ccc(Cl)cc3)cc2)o1)Nc1ccccc1		> 100	> 100	> 100	47		> 100	31.1	> 100	> 100	> 100							
NC(=S)Nc1nnc(-c2ccc(-c3nnc(NC(N)=S)o3)cc2)o1	> 100	> 100	> 100	> 100	> 100	> 100	> 100	> 100	> 100	> 100								
